{"source": "patent US10765657B2", "about": "“Selamectin for treatment of sea lice infestations” (priority 2013, dated 2020)", "key": {"[1]": {"system": "naïve sea lice", "assay": "Prophylactic efficacy of medicated feed against sea lice challenge in fish", "assay_type": "in vivo", "protocol": "Experimental diets containing selamectin were administered to 15×2 m diameter tanks of 75 fish by voluntary feeding from Day 0 to Day 6. […] The study evaluated the three concentrations of test material in comparison to a negative control (placebo) and a positive control. Each group was run as triplicate tanks. In each group, sea lice were evaluated using a representative sample of 5 fish per tank on Day −1 (pre-treatment) and 10 fish per tank on days 10 and 30 (4 and 24 days post-treatment).\nThe prophylactic effect of treatment was determined by removing lice and using further sea lice challenges at intervals. All adult lice were removed from remaining fish following Day 30 and a further sea lice challenge took place on Day 37 (31 days post treatment) and lice counts and tissue samples taken from 10 fish per tank on Day 60 (53 days post treatment).\nAll adult lice were removed from remaining fish following Day 64 and 12 fish per tank were moved to 15×1 m diameter tanks. On Day 67 (61 days post-treatment) the fish in these 1 m tanks received a further sea lice challenge and on Day 90 (84 days post-treatment) lice counts and tissue samples were taken from 10 fish per tank.\nOn Day 76 (70 days post-treatment) the fish remaining in 2 m tanks received a further naïve sea lice challenge and on Day 99 (93 days post-treatment) lice counts and tissue samples were taken from 10 fish per tank."}, "[2]": {"system": "naïve sea lice, Lepeophtheirus salmonis", "assay": "Static 24 hour sea lice bioassay, naïve strain", "settings": "24 hours exposure, 0.2% DMSO in seawater, about 10-12° C."}, "[3]": {"system": "emamectin benzoate resistant sea lice, Lepeophtheirus salmonis", "assay": "Static 24 hour sea lice bioassay, emamectin benzoate resistant strain", "settings": "24 hours exposure, 0.2% DMSO in seawater, about 10-12° C."}}}
{"compound": "CO[C@H]1C[C@H](O[C@@H]2/C(C)=C/C[C@@H]3C[C@@H](C[C@]4(CC[C@H](C)[C@@H](C5CCCCC5)O4)O3)OC(=O)[C@@H]3C=C(C)/C(=N/O)[C@H]4OC/C(=C\\C=C\\[C@@H]2C)[C@]43O)O[C@@H](C)[C@@H]1O", "note": "[Selamectin, selamectin]", "values": [{"measurement": "prophylactic efficacy", "setting": "[1]; 40 μg/kg/day oral in feed, Day 0 to Day 6, at 4.4 weeks", "value": 99.6, "unit": "%"}, {"measurement": "prophylactic efficacy", "setting": "[1]; 40 μg/kg/day oral in feed, Day 0 to Day 6, at 10 weeks", "value": 68.4, "unit": "%"}, {"measurement": "prophylactic efficacy", "setting": "[1]; 160 μg/kg/day oral in feed, Day 0 to Day 6, at 4.4 weeks", "value": 100, "unit": "%"}, {"measurement": "prophylactic efficacy", "setting": "[1]; 160 μg/kg/day oral in feed, Day 0 to Day 6, out to 10 weeks", "value": 98.5, "unit": "%"}, {"measurement": "Adult females EC50", "setting": "[2]", "value": 10.68, "unit": "ppb"}, {"measurement": "Adult males EC50", "setting": "[2]", "value": 3.21, "unit": "ppb"}, {"measurement": "Adult females EC50", "setting": "[3]", "value": 16.91, "unit": "ppb"}, {"measurement": "Adult males EC50", "setting": "[3]", "value": 6.95, "unit": "ppb"}]}
{"compound": "emamectin benzoate", "values": [{"measurement": "prophylactic efficacy", "setting": "[1]; 50 μg/kg/day (commercially licensed value) oral in feed, at 4.4 weeks", "value": 100, "unit": "%"}, {"measurement": "prophylactic efficacy", "setting": "[1]; 50 μg/kg/day (commercially licensed value) oral in feed, out to 10 weeks", "value": 72.9, "unit": "%"}, {"measurement": "Adult females EC50", "setting": "[2]", "value": 29, "unit": "ppb"}, {"measurement": "Adult males EC50", "setting": "[2]", "value": 112, "unit": "ppb"}, {"measurement": "Adult females EC50", "setting": "[3]", "value": 65, "unit": "ppb"}, {"measurement": "Adult males EC50", "setting": "[3]", "value": 202, "unit": "ppb"}]}
